We go through four compounds from patent US6900202B2, “Di-substituted imineheterocyclic compounds” (priority 2000, dated 2005).

Assay [1] has as its target T1, α4β2 subtype of nicotinic acetylcholine receptors (Rattus norvegicus, UniProt P09483+P12390).
T1 construct: examined using rat brain membrane obtained from whole homogenized brain; from tissue; host or cells: whole brain membranes of Fischer-344 male rats
Nature of the assay: Binding assay at α4β2 subtype of nicotinic acetylcholine receptors ([3H]-cytisine, rat brain membrane). The source says: (§1) The methods for evaluating the binding capabilities of the compounds against nicotinic acetylcholine receptors are different by subtypes of receptors. The binding capabilities of the compounds at α4β2 nicotinic acetylcholine receptors are examined using rat brain membrane obtained from whole homogenized brain, and determining the inhibiting rate of the compounds against [^3H]-cytisine binding to said brain membrane. Furthermore, the binding capabilities of the compounds at α1β1γδ nicotinic acetylcholine receptors are examined using homogenized rat muscle, and determining the inhibiting rate of the compounds against [^3H]-α-bungarotoxin binding to said muscle membrane.
Binding Assays at α4β2 Subtype of Nicotinic Acetylcholine Receptors
The affinity of the compounds of the present invention to α4β2 subunit of nicotinic acetylcholine receptors was performed by the following method, which was modified method described by Pabreza L. A., Dhawan S. & Kellar K. J., Mol. Pharm., 39, 9-12 (1990), and by Anderson D. J. & Arneric S. P., Eur. J. Pharm., 253, 261-267 (1994).
(1) Preparation of Rat Brain Membrane Containing α4β2 subtype of Nicotinic Acetylcholine Receptors
Fischer-344 strain male rats (body weight: 200-240 g; 9 weeks old) obtained from Charles River Japan were used. Rats were housed in the breeding cage controlled of the room temperature at 23±1° C., and the humidity of 55±5% for 1 to 4 weeks. Rats (3 to 4 rats per a cage) were housed with lights on for 12 hours daily (from 7:00 to 19:00), and allowed free access to food and water.
Preparation of rat brain membrane containing α4β2 subtype of nicotinic acetylcholine receptors was performed as follow. That is, rat brains were isolated just after sacrificed by decapitation, washed with ice-cooled saline solution and then frozen at −80° C. with liquid nitrogen and stored till using. After thawing the frozen brain, the brain was homogenized in 10 volumes of buffer solution (50 mM of Tris-HCl, 120 mM of NaCl, 5 mM of KCl, 1 mM of MgCl2, 2mM of CaCl2; pH 7.4; 4° C.) using homogenizer (HG30, Hitachi Kohki Ltd.) for 30 seconds, and the homogenate were centrifuged under 1,000×G for 10 minutes at 4° C. The resulting supernatant was separated and the pellet was homogenized again with half volume of aforementioned prior buffer solution and centrifuged under the same conditions. Combined supernatant was further centrifuged under 40,000×G for 20 minutes at 4° C. The pellet was suspended in buffer solution and used for binding assays at receptors.
(2) Experiments of α4β2 Subtype of Nicotinic Acetylcholine Receptors Binding
Suspensions of membrane pellets containing 400-600 μg of protein were added to test tubes containing test compounds and [^3H]-cytisine (2 nM) in a final volume of 200 μl and incubated for 75 minutes in ice-cooled bath. The samples were isolated by vacuum filtration onto Whatman GF/B filters, which were prerinsed with 0.5% polyethylenimine just prior to sample filtration, using Brandel multi manifold cell harvester. The filters were rapidly washed with buffer solution (3×1 ml). The filters were counted in 3 ml of clearsol I (Nacalai Tesque Inc.).
The analyses of the experimental results were conducted by using the Accufit Competition Program (Beckman Ltd.).

Assay [2] concerns the target T2, α1β1γδ subtype of nicotinic acetylcholine receptors (Rattus norvegicus, UniProt P18916+P25108+P25109+P25110).
T2 construct: The centrifugation at 100,000×G for 60 minutes at 4° C. yielded the rat muscle extract as supernatant
Briefly: biochemical. The class given is binding.
From the text: as §1
(§2) Binding Assays at α1β1γδ Subtype of Nicotinic Acetylcholine Receptors
(§3) The affinity of the compounds of the present invention to α1β1γδ subtype of nicotinic acetylcholine receptors was measured by the following method, which was modified method described by Garcha H. S., Thomas P., Spivak C.
(§4) (1) Preparation of Rat Skeletal Muscles Containing α1β1γδ Subtype of Nicotinic Acetylcholine Receptors
(§5) The substantially same animals described in the Biological Experiment 1 were used.
(§6) The isolation of α1β1γδ subtype of nicotinic acetylcholine receptors was performed as follow. That is, rat posterior skeletal muscles were isolated just after sacrificed by decapitation, washed with ice-cooled saline solution and then frozen at −80° C. with liquid nitrogen and stored till using. After thawing the frozen muscles, tissue was homogenized (40% w/v) with buffer solution [2.5 mM of sodium phosphate buffer (pH:7.2), 90 mM of NaCl, 2 mM of KCl, 1 mM of EDTA, 2 mM of benzamidine, 0.1 mM of benzethonium chloride, 0.1 mM of PMSF, 0.01% of sodium azide] in Waring blender [Waring blender 34BL97; WARING PRODUCTS DIVISION DYNAMICS CORPORATION OF AMERICA) for 60 seconds. The homogenate were centrifuged under 20,000×G for 60 minutes at 4° C. The supernatant was separated and the resulting pellet was added to the same buffer (1.5 ml/g wet weight), and homogenized under the same conditions. Triton X100 (2% w/v) was added and the mixture was stirred for 3 hours at 4° C. The centrifugation at 100,000×G for 60 minutes at 4° C. yielded the rat muscle extract as supernatant. This was stored at 4° C. for up to 4 weeks, and used for binding assays at receptors.
(§7) (2) Experiments of α1β1γδ Subtype of Nicotinic Acetylcholine Receptors Binding
(§8) Receptors binding experiments were performed as follow. That is, the extract of rat muscle containing 600-900 μg of protein was added to test tubes containing test compounds and incubated for 15 minutes at 37° C. Then, to this mixture was added 1 nM of [^3H]-α-bungarotoxin (α-Bgt) and further incubated for 2 hours. The samples were isolated by vacuum filtration onto Whatman GF/B filters, which were prerinsed with 0.5% polyethylenimine just prior to sample filtration, using Brandel multi manifold cell harvester. The filters were rapidly rinsed with washing solution (10 mM of KH2PO4, 150 mM of NaCl, pH 7.2, room temperature) (5×1 ml). The filters were counted in 3 ml of clearsol I (Nacalai Tesque Inc.). The determination of nonspecific binding was incubated in the presence of 1 μM α-Bgt. […] In the receptor binding experiments, said buffer solution was added for adjusting the final concentration of BSA to be 0.05%.
(§9) The analyses of the experimental results were conducted by as described in the Biological Experiment 1.

The target of assay [3] is T3, α1β1γδ subtype of nicotinic acetylcholine receptors (Rattus norvegicus, UniProt P25108).
T3 construct: The centrifugation at 100,000×G for 60 minutes at 4° C. yielded the rat muscle extract as supernatant
Briefly: biochemical. The class given is binding. As to conditions: % of control binding remaining.
From the text: as §1, §2, §3, §4, §5, §6, §7, §8, §9

T1 sequence (P09483 31-630): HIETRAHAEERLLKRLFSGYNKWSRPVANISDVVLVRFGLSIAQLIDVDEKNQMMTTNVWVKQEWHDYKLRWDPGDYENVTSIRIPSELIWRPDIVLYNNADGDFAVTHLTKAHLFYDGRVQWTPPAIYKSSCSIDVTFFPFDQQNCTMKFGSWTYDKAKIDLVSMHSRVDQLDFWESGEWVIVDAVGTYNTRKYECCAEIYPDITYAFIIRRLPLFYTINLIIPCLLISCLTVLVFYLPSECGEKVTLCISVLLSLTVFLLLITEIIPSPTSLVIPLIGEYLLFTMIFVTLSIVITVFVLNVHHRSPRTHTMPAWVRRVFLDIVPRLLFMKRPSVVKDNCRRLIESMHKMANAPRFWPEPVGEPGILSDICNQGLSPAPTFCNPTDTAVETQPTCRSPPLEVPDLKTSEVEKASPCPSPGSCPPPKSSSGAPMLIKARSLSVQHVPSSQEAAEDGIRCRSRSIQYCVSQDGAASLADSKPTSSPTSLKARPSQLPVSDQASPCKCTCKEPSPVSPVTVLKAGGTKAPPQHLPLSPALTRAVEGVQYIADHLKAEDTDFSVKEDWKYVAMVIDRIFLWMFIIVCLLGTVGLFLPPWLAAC
T1 sequence (P12390 25-500): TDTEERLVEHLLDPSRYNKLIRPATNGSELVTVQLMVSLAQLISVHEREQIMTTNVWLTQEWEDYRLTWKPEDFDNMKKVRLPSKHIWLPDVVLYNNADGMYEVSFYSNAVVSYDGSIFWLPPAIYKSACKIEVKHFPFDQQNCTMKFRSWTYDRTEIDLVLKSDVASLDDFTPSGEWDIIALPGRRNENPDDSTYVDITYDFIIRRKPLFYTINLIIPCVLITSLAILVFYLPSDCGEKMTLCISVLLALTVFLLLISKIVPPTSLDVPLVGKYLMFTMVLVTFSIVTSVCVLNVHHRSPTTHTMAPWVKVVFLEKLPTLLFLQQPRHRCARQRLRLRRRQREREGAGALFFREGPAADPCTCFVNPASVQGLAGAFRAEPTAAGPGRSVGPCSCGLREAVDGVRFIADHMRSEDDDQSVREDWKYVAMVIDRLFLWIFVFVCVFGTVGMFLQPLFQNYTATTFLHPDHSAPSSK
T2 sequence (P25108 21-457): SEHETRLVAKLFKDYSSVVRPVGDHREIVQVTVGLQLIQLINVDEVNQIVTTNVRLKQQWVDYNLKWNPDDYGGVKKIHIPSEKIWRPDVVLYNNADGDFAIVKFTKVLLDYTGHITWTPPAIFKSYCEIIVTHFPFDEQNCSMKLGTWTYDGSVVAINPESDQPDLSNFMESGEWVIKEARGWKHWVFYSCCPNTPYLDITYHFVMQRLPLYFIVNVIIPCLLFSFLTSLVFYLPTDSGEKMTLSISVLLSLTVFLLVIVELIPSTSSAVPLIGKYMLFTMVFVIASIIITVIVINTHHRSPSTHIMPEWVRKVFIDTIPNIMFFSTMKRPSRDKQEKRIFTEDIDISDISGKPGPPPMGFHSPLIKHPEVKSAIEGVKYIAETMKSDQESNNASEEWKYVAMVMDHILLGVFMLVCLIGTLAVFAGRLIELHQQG
T2 sequence (P25109 24-501): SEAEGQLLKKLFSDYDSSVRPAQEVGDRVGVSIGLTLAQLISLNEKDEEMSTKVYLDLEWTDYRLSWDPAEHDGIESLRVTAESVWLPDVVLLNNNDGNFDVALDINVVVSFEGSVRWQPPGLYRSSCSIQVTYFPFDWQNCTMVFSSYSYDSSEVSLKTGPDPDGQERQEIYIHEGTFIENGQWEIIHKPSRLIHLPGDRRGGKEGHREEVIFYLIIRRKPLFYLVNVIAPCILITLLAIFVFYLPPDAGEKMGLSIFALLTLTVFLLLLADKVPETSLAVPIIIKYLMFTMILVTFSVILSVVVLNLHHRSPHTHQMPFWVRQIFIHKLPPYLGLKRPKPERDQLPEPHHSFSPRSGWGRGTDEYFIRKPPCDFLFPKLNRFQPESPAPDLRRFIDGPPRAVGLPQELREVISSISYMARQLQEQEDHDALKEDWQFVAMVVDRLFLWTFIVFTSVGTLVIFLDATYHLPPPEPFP
T2 sequence (P25110 22-517): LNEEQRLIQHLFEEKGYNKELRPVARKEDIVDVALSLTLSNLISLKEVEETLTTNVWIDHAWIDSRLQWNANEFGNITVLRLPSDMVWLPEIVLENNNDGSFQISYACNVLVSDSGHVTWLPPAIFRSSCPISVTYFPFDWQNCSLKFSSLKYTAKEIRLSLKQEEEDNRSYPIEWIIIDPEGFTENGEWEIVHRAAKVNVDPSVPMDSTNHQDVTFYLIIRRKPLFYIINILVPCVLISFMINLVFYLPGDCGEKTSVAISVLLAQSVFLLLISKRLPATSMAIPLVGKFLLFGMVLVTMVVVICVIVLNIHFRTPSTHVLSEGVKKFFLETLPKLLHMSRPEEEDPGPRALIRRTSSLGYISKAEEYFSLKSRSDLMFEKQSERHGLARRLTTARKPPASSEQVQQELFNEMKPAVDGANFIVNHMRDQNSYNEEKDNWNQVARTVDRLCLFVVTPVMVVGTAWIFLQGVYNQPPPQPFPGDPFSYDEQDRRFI
T3 sequence (P25108 21-457): as the sequence (P25108 21-457) above
T3 sequence (P25109 24-501, further chain): as the sequence (P25109 24-501) above
T3 sequence (P25110 22-517, further chain): as the sequence (P25110 22-517) above

By Ki is commonly meant a measure of affinity in units of concentration, obtained from inhibition or displacement. As to `Cn1ccn(Cc2ccc(Cl)nc2)c1=N` [Compound 13, 1-(6-chloro-3-pyridyl)methyl-2-imino-3-methyl-2,3-dihydroimidazole], the Ki in assay [1] came to 0.015 µM; in assay [2], 320 µM.

Turning to `Clc1ccc(C/N=c2\sccn2Cc2ccc(Cl)nc2)cn1` [Compound 8, 3-(6-chloro-3-pyridyl)methyl-2-[(6-chloro-3-pyridyl)methyl]imino-2,3-dihydrothiazole], the Ki in assay [1] is 0.042 µM; in assay [2], 840 µM.

As to `Clc1ccc(C/N=C2\SCCN2Cc2ccc(Cl)nc2)cn1` [Compound 1, 3-(6-chloro-3-pyridyl)methyl-2-[(6-chloro-3-pyridyl)methyl]iminothiazolidine], the Ki in assay [1] is 0.016 µM; in assay [2] it was 420 µM.

Regarding `Clc1ccc(C/N=C2\OCCCN2Cc2ccc(Cl)nc2)cn1` [Compound 2, 3-(6-chloro-3-pyridyl)methyl-2-[(6-chloro-3-pyridyl)-methyl]imino-3,4,5,6-tetrahydro-2H-1,3-oxazine], affinity in assay [1] was put at a Ki of 0.022 µM. Further, the “control % of [3H]-α-Bgt binding at 100 μM of test compound” value in assay [3] (100 μM test compound) was 95%. Also, in assay [3] (1,000 μM test compound), the “control % of [3H]-α-Bgt binding at 1,000 μM of test compound” value came to 56%.
